Data from BindingDB's records for doi:10.1016/s0891-0618(03)00032-2 (University of Michigan, 2003).

Experiments:
Mu-type opioid receptor = Mu-type opioid receptor (Rattus norvegicus, UniProt P33535)
[1] = target: Delta-type opioid receptor (Rattus norvegicus, UniProt P33533)
[2] = target: Kappa-type opioid receptor (Rattus norvegicus, UniProt P34975)
Nociceptin receptor = Nociceptin receptor (Rattus norvegicus, UniProt P35370)
Chain of Nociceptin receptor (P35370 whole entry): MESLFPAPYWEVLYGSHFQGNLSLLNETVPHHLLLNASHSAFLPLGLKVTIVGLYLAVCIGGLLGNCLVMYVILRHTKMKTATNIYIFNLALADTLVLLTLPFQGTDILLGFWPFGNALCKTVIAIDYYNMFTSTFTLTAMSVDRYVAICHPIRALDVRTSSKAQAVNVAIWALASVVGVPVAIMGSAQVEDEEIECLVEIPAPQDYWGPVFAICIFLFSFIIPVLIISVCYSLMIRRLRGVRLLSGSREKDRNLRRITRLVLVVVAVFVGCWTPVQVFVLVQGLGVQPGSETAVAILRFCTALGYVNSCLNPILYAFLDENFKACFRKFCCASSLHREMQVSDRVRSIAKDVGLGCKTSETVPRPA

Chain of Mu-type opioid receptor (P33535 whole entry): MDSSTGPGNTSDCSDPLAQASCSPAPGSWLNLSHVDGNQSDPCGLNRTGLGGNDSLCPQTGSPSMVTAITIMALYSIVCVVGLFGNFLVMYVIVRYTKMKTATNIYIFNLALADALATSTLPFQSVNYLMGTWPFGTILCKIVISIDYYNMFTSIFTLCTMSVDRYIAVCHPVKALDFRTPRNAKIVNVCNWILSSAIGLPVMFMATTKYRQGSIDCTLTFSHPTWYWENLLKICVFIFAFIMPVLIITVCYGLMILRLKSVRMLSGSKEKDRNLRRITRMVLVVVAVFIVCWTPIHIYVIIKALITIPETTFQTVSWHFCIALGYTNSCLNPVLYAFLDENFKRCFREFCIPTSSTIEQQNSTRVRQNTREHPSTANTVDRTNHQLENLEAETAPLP
Chain of Kappa-type opioid receptor (P34975 whole entry): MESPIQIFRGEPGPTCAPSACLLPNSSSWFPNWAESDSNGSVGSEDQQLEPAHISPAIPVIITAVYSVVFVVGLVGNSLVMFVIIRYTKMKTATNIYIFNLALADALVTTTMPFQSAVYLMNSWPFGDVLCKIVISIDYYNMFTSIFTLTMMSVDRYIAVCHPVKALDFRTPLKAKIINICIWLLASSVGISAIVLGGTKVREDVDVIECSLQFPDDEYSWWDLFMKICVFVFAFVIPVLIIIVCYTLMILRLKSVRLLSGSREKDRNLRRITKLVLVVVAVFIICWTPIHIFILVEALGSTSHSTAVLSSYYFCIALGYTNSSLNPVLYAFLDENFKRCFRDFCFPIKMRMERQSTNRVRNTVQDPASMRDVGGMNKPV
Chain of Delta-type opioid receptor (P33533 whole entry): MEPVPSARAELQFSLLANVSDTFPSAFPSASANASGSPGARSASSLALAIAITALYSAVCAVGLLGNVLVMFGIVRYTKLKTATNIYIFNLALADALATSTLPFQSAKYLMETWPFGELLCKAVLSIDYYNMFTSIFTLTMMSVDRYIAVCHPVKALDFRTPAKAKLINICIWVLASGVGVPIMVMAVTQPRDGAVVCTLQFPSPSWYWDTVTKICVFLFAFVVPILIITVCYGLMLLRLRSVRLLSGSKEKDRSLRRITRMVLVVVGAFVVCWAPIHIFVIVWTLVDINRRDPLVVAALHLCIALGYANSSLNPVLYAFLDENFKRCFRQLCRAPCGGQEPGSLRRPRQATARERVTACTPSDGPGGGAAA

Molecule	Ki (Mu-type opioid receptor) [µM]	Ki [1] [µM]	Ki [2] [µM]	Ki (Nociceptin receptor) [µM]
CCC12CCN(CC3CC3)C(C(=O)c3ccc(O)cc31)C2C (centres undefined) [EKC]	0.00193	0.00246	0.00212	
CC(C)C[C@H](NC(=O)[C@H](CCCCN)NC(=O)[C@H](CCCN=C(N)N)NC(=O)[C@H](C)NC(=O)[C@H](CO)NC(=O)[C@H](CCCCN)NC(=O)[C@H](CCCN=C(N)N)NC(=O)[C@H](C)NC(=O)CNC(=O)[C@@H](NC(=O)[C@H](Cc1ccccc1)NC(=O)CNC(=O)CNC(=O)[C@@H](N)Cc1ccccc1)[C@@H](C)O)C(=O)N[C@@H](C)C(=O)N[C@@H](CC(N)=O)C(=O)N[C@@H](CCC(N)=O)C(=O)O [OFQ 1-17]	> 10	> 10	> 10	
H-FSEFMRQYLVLSMQSSQ-OH [OFQ II 1-17]	> 10	> 10	> 10	> 10
H-FSEFMRQYLVLSMQSSQRRRTLHQNGNV-NH2 [NSC_0]	> 10	> 10	> 10	> 10
